# Data reported in patent US7605131B2, “EML4-ALK fusion gene” (Astellas Pharma Inc., priority 2007, dated 2009).
# Columns and labels:
# [1] = target: T1, EML4-ALK fusion polypeptide v3 (Homo sapiens, UniProt Q9UM73, D1529E/I1461V/K1491R); test: Intracellular autophosphorylation of EML4-ALK fusion polypeptide v3 in v3 expressing 3T3 cells; assay type: cell-based; conditions: 4 hours
# Description: The EML4-ALK fusion polypeptide v3 expression vector (designated as EML4-ALKv3/pMXS) was constructed by subcloning the insert of the EML4-ALKv3/pT7Blue-2 in pMXS plasmid (JBC 275, 24945-24952, 2000). Also, using the EML4-ALKv3/pT7Blue-2, an expression vector (designated as FLAG-EML4-ALKv3/pMX-iresCD8) which expresses both EML4-ALK fusion polypeptide v3 having the FLAG tag at the N-terminus and CD8 was constructed by subcloning the insert in pMX-iresCD8 plasmid (JBC 276, 39012-39020, 2001). The 3T3 cells transfected with the EML4-ALKv3/pMXS described above were inoculated subcutaneously to nude mice at 5×10^6 cells/mouse and observed after 20 days. […] Hereinafter, the 3T3 cells in which EML4-ALK fusion polypeptide v3 is expressed are designated as the v3 expressing 3T3 cells.
# v3 expressing 3T3 cells = test: Anchorage independent growth of v3 expressing 3T3 cells (spheroid plate, CellTiter-Glo); assay type: cell-based
# Description: Measurement for anchorage independent cell growth (colony method, etc) has been known to be a system for investigating an antitumor effect (pharmacologic effect) of compounds (Clinical Oncology, second edition, Cancer and Chemotherapy Publishers Inc.). In place of the colony method, there is a following method using spheroid plates for measuring the growth of non-attached cells.
# (§1) The v3 expressing 3T3 cells (Example 2) were seeded to a 96 well spheroid plate (Sumilon Celltight Spheroid 96U, Sumitomo Bakelite Inc.) at 3000 cells per well in a medium (Invitrogen) containing 10% fetal bovine serum. […] At the same time, cells were counted before the addition of drugs (Day 0). Then, cells were cultured under 5% CO2, at 37° C. for 3 days, mixed with a reagent for measuring cell number (CellTiter-Glo™ Luminescent Cell Viability Assay; Promega Inc.) stirred for 20 minutes, and the measurements (day 3) were carried out using a luminometer (ML3000 microtiter plate luminometer; Dynatech Laboratories Inc.).
# NCI-H2228 cells = test: Anchorage independent growth of NCI-H2228 cells (spheroid plate); assay type: cell-based, human
# Description: as §1
# DMSO (control) or compound A-D was added to the NCI-H2228 cells at 10 μM or 30 nM and this investigation was performed by a similar manner described as in Example 5, except cells were cultured for 5 days after the addition of drugs.
# [2] = target: T1, EML4-ALK fusion polypeptide v3; test: In vitro autophosphorylation of purified EML4-ALK fusion polypeptide v3 (immunoblot, anti-phosphorylated ALK antibody); assay type: biochemical; set-up: expresses both EML4-ALK fusion polypeptide v3 having the FLAG tag at the N-terminus and CD8; made in house; host or cells: mouse BA/F3 cells infected with FLAG-EML4-ALKv3/pMX-iresCD8 retrovirus
# Description: (§2) A recombinant retrovirus was produced according to a method of previous report (BBRC 356, 723-726, 2007) using FLAG-EML4-ALKv3/pMX-iresCD8. Mouse lymphatic cell line BA/F3 cells were infected therewith. The EML4-ALK fusion polypeptide v3 expressing BA/F3 cells were cultured in RPM1640 medium containing 10% of fetal bovine serum. To prepare the EML4-ALK fusion polypeptide v3, about 2×10^9 cells were collected. After washing 3 times with PBS, cells were lysed in a lysis solution (50 mM Tris.HCl (pH7.4), 150 mM NaCl, 1% Triton X100, 5 mM EDTA, 5 mM EGTA, 1 mM NaVO4, 1 mM DTT and protease inhibitor cocktail complete). The EML4-ALK fusion polypeptide v3 present in the supernatant obtained after a centrifugation was purified using ANTI-FLAG M2 Affinity Gel (SIGMA-ALDRICH Inc) according to the method described in the product information document. For washing and elution, the washing solution (50 mM Tris.HCl (pH7.4), 250 mM NaCl, 0.05% Brij35, 1 mM EDTA, 1 mM EGTA, 1 mM NaVO4, 1 mM DTT, complete) and the elution solution (50 mM Tris.HCl (pH7.4), 150 mM NaCl, 0.05% Brij35, 1 mM DTT, 0.5 mg/mL FLAG peptide) were used, respectively. Immunoblotting using anti-ALK antibody and anti FLAG M2 antibody (SIGMA-ALDRICH Inc.) and silver staining were carried out for the eluate to detect the EML4-ALK fusion polypeptide v3.
# (§3) The EML4-ALK fusion polypeptide v3 purified as described above was diluted in a reaction solution (15 mM Tris HCl (pH7.4), 0.25 mM MgCl2, 0.01% Tween-20, 2 mM DTT), and then ATP was not added or ATP 20 μM was added. The respective mixtures were reacted at room temperature for 1 hour. After the reaction, the auto phosphorylated EML4-ALK fusion polypeptide v3 and the EML4-ALK fusion polypeptide v3 were detected by immunoblotting using anti-phosphorylated ALK antibody, which recognizes specifically the product phosphorylated at the 1604th tyrosine residue of ALK, and anti-ALK antibody, and quantitated by an image analysis system (VersaDoc Imaging System; Bio-Rad Inc.). […]
# [3] = target: T1, EML4-ALK fusion polypeptide v3; test: In vitro phosphorylation of peptide substrate by purified EML4-ALK fusion polypeptide v3 (HTRF KinEASE-TK); assay type: biochemical; set-up: expresses both EML4-ALK fusion polypeptide v3 having the FLAG tag at the N-terminus and CD8; made in house; host or cells: mouse BA/F3 cells infected with FLAG-EML4-ALKv3/pMX-iresCD8 retrovirus; conditions: TK substrate 1
# Description: as §2, §3
# NPM-ALK = target: T2, NPM-ALK (Homo sapiens, UniProt Q9UM73); conditions: reported in Laboratory investigation 2005, Vol. 85, p. 1544-1554; cited from earlier work
# T2 construct: the other entry of the earlier key: NPM1 (P06748, Nucleophosmin)
# NCI-H2228 = test: Anti-tumor test against NCI-H2228 subcutaneous tumor in NOD/SCID mice; assay type: in vivo; conditions: 10 mg/kg orally once a day for 14 days, solvent group start day = 100% inhibition, finish day = 0%
# Description: 3×10^6 cells of NCI-H2228 suspended in 50% BD Matrigel™ (BD Biosciences) in PBS were inoculated subcutaneously by injection to the back of 5 weeks old male NOD/SCID mice (Japan Charles River Inc.). […] Administrations were performed once a day for 14 days, and body weight and tumor size were measured every three or four day. Tumor volume was calculated using the following formula. [Tumor volume (mm^3)]=[Tumor major axis (mm)]×[tumor minor axis (mm)]^2×0.5
# [4] = Mus musculus, NIH3T3, read-out: Inhibitory activity on v3 expressing 3T3 cells
# [5] = Homo sapiens, NCI-H2228, read-out: Inhibitory activity on NCI-H2228 cells
# T1 sequence (Q9UM73 with tags, fused parts or gaps I1461V/K1491R/D1529E): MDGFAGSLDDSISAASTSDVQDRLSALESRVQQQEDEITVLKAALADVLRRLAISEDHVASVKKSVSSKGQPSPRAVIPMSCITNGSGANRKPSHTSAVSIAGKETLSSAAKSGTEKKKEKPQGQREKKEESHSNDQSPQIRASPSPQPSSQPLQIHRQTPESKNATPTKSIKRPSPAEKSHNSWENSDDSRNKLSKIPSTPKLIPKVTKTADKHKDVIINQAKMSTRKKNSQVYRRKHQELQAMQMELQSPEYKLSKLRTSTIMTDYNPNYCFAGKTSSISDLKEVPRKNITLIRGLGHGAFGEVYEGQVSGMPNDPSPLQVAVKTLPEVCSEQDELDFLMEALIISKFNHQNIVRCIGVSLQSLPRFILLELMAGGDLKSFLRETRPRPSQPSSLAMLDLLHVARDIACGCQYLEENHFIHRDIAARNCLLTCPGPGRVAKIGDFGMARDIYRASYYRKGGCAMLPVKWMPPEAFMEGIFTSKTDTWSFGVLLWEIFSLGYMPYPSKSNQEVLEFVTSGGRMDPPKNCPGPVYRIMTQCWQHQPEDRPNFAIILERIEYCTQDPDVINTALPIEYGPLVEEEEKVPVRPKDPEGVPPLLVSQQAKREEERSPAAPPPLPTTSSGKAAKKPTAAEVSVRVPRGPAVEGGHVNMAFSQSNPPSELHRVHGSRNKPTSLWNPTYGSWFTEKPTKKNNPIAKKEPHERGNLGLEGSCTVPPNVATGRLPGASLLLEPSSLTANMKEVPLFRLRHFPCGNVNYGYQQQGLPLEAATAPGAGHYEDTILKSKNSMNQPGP
# T2 sequence (Q9UM73 with tags, fused parts or gaps): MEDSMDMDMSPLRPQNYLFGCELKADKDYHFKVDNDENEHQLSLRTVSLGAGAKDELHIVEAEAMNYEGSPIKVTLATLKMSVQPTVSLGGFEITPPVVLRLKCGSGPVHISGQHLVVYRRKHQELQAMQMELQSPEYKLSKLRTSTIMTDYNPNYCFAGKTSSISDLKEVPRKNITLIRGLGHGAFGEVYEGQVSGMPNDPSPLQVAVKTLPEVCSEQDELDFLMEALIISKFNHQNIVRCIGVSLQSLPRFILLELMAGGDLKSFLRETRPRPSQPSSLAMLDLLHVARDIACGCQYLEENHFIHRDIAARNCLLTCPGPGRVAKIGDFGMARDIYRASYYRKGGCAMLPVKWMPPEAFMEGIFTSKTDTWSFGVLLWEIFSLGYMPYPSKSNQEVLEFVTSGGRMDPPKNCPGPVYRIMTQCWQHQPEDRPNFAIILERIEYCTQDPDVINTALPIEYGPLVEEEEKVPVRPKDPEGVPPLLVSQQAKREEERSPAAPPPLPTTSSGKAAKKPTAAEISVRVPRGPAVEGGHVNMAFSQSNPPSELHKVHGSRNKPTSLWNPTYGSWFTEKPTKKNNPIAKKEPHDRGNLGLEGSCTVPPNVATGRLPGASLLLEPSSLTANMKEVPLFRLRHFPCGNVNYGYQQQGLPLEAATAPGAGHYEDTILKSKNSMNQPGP
smiles,measurement,setting,value
"O=C(COc1ccc(OC(F)(F)F)cc1)NCc1nc(C(=O)NCCc2cccc(Cl)c2)cs1 [B, N-[2-(3-chlorophenyl)ethyl]-2-[({[4-(trifluoromethoxy)phenoxy]acetyl}amino)methyl]-1,3-thiazole-4-carboxamide]",inhibition at 10 µM,"[1]; NIH3T3, final concentration 10 μM",76%
same,inhibition at 10 µM,v3 expressing 3T3 cells; [4],53%
same,inhibition at 10 µM,NCI-H2228 cells; [5],102%
same,inhibition at 10 µM,[2]; final concentration 10 μM,100%
same,inhibition at 10 µM,[3]; final concentration 10 μM,77%
"COc1cc2ncnc(Nc3ccc(O)c(Br)c3)c2cc1OC [A, 4-[(3′-Bromo-4′-hydroxyphenyl)amino]-6,7-dimethoxyquinazoline]",Inhibition on autophosphorylation (v3 expressing 3T3 cells),[1]; final concentration 10 μM,94%
same,Inhibitory activity on v3 expressing 3T3 cells,"v3 expressing 3T3 cells; final concentration 10 μM, 3 days, cell number at Day 0 = 100% inhibition, Day 3 = 0%",172%
same,Inhibitory activity on NCI-H2228 cells,"NCI-H2228 cells; final concentration 10 μM, 5 days, cell number at Day 0 = 100% inhibition, Day 5 = 0%",164%
same,Inhibition of the activity of NPM-ALK,NPM-ALK,inhibit the activity of NPM-ALK
same,Inhibition on autophosphorylation,[2]; final concentration 10 μM,100%
same,Inhibition on peptide substrate,[3]; final concentration 10 μM,98%
"CNS(=O)(=O)c1ccccc1Nc1nc(Nc2ccc(N3CCN(C)CC3)cc2OC)ncc1Br [D, 2-[(5-bromo-2-{[2-methoxy-4-(4-methylpiperazin-1-yl)phenyl]amino}pyrimidin-4-yl)amino]-N-methylbenzenesulfonamide]",inhibition at 0.01 µM,"[1]; NIH3T3, final concentration 10 nM",106%
same,inhibition at 0.03 µM,v3 expressing 3T3 cells; [4],206%
same,inhibition at 0.03 µM,NCI-H2228 cells; [5],141%
same,inhibition at 0.01 µM,[2]; final concentration 10 nM,107%
same,inhibition at 0.01 µM,[3]; final concentration 10 nM,98%
"COc1cc(N2CCC(N3CCN(C)CC3)CC2)ccc1Nc1ncc(Cl)c(Nc2ccccc2S(=O)(=O)C(C)C)n1 [Compound C, 5-chloro-N^4-[2-(isopropylsulfonyl)phenyl]-N^2-{2-methoxy-4-[4-(4-methylpiperazin-1-yl)piperidin-1-yl]phenyl}pyrimidine-2,4-diamine]",inhibition at 0.03 µM,v3 expressing 3T3 cells; [4],182%
same,inhibition at 0.03 µM,NCI-H2228 cells; [5],137%
same,Inhibition rate of tumor growth (tumor volume) of NCI-H2228,NCI-H2228,132%
"COc1cc2ncnc(Nc3ccc(O)cc3)c2cc1OC [WHI-P131, 4-(4′-Hydroxyphenyl)amino-6,7-dimethoxyquinazoline]",Inhibition of the activity of NPM-ALK,NPM-ALK,inhibit the activity of NPM-ALK
